Consider 27 compounds from patent US20200392158A1, “INHIBITORS OF LEUCINE RICH REPEAT KINASE 2” (GLAXOSMITHKLINE INTELLECTUAL PROPERTY DEVELOPMENT LIMITED, priority 2017, published 2020).

What is called IC50 is the concentration at which inhibition is half-maximal. Read a low IC50 as inhibition by little substance.

A value given as a limit tells only on which side of the number the result lay.

For the assay, the target named is T1, full length G2019 human LRRK2 (Homo sapiens, UniProt Q5S007, R50H).
T1 construct: made in house; host or cells: HEK293 6E cells transduced with BacMam virus (virus generated in Sf9 cells)
T1 sequence (Q5S007 with tags, fused parts or gaps R50H): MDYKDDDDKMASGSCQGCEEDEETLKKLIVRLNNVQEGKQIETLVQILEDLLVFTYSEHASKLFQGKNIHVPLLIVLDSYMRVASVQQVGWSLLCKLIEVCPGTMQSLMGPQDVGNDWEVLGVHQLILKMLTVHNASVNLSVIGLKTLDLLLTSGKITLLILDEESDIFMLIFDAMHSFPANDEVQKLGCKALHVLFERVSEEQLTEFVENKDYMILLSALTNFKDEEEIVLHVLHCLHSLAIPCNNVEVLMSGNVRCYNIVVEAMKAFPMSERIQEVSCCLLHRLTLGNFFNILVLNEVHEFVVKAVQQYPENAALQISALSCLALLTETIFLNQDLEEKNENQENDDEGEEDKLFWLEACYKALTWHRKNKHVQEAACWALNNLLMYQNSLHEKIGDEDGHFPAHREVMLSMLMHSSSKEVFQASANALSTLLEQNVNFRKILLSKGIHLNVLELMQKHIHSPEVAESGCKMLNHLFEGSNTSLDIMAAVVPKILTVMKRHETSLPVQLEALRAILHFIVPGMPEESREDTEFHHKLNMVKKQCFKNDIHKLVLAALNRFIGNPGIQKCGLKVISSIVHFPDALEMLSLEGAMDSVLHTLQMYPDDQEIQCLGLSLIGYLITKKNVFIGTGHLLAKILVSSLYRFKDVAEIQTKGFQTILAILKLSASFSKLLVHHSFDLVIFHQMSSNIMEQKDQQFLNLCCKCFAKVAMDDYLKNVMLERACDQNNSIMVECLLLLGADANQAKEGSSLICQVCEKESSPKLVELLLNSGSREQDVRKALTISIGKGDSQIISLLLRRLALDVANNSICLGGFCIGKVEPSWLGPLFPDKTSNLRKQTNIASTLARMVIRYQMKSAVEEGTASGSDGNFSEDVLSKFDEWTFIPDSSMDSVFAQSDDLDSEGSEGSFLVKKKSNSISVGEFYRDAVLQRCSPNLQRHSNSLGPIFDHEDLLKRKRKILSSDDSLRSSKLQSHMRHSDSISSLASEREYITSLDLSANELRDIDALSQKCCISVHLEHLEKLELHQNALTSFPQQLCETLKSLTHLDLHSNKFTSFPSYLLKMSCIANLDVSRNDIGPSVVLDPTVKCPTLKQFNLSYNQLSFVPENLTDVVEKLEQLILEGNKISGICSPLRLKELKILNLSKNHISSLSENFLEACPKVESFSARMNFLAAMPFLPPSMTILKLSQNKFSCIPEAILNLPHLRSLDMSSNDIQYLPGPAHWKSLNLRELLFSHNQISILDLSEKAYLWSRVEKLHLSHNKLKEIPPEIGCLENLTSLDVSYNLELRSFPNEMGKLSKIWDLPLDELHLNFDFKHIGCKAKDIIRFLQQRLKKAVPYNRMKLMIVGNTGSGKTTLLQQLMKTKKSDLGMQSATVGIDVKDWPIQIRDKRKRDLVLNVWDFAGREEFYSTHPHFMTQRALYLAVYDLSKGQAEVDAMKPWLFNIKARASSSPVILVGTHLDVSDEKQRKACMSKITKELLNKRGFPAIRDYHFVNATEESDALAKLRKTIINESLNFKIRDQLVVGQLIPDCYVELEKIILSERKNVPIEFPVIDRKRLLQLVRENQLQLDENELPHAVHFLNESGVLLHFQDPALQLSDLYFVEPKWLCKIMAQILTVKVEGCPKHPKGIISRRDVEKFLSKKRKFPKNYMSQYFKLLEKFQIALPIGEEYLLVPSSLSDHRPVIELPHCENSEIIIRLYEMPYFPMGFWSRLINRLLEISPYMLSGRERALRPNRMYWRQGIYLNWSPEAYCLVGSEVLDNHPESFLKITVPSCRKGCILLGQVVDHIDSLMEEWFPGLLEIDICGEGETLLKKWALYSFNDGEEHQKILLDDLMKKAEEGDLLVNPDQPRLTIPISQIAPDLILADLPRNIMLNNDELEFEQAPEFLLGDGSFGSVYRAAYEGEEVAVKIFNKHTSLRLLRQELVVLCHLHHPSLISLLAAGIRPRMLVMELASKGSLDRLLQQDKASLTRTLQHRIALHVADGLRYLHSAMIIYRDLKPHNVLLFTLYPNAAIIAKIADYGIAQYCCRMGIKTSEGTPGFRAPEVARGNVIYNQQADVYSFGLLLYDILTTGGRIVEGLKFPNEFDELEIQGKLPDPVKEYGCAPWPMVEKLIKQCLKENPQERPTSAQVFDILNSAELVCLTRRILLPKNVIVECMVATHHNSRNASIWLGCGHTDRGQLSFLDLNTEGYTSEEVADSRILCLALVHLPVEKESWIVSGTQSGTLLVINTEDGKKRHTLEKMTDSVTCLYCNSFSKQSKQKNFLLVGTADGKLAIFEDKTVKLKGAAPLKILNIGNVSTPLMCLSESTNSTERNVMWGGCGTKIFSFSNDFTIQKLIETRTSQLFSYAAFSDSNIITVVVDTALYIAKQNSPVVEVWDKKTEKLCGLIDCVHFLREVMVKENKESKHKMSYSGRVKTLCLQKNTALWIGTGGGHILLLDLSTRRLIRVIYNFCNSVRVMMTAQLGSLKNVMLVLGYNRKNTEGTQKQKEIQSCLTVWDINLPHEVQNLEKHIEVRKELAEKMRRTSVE
The assay can be described thus: Full length G2019 human LRRK2 inhibition mass spectrometry assay. The assay is classed as biochemical. The following applies: LRRKtide to phospho-LRRKtide conversion, RapidFire MS, 2 mM ATP. Summed up:
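Purified full-length Flag-tagged G2019 LRRK2, ~25 nM, with 25 μM LRRKtide and 2 mM ATP in 50 mM Hepes pH 7.2, 10 mM MgCl2, 150 mM NaCl, 1 h at room temperature. Quenched with formic acid; phospho- and unphosphorylated LRRKtide measured by RapidFire MS. pIC50 from 4-parameter fit of % conversion, 11 points, top 100 μM.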
`Cc1c2c(nn1C1CCC(N3C[C@H]4C[C@@H]3CO4)CC1)OCCCNc1nc(ncc1Cl)N2` (single isomer, unassigned) [E49] had an IC50 of at most 100 nM.

For `COC1CCCC(n2nc3c(c2C)Nc2ncc(Cl)c(n2)NCCCO3)C1` (single isomer, unassigned) [E180, 14-Chloro-5-(3-methoxycyclohexyl)-4-methyl-8-oxa-2,5,6,12,16,17-hexaazatricyclo[11.3.1.0^3,7]heptadeca-1(16),3,6,13(17),14-pentaene], the IC50 is at most 100 nM.

`Cc1c2c(nn1C1CCC(C)CC1)OCCCNc1nc(ncc1Cl)N2` (single isomer, unassigned) [E258, 14-Chloro-4-methyl-5-(4-methylcyclohexyl)-8-oxa-2,5,6,12,16,17-hexaazatricyclo[11.3.1.0^3,7]heptadeca-1(16),3,6,13 (17),14-pentaene]: the 50% inhibitory concentration (IC50) was at most 100 nM.

`Cc1c2c(nn1C1CCC(N3CCC(F)C3)CC1)OCCCNc1nc(ncc1Cl)N2` (single isomer, unassigned) [E155, 14-Chloro-5-[4-(3-fluoropyrrolidin-1-yl)cyclohexyl]-4-methyl-8-oxa-2,5,6,12,16,17-hexaazatricyclo[11.3.1. 0^3,7]heptadeca-1(16),3,6,13(17),14-pentaene] had a half-maximal inhibitory concentration (IC50) of at most 100 nM.

For the compound `FC(F)(F)c1c2c(nn1C1CCOCC1)OCCCNc1nc(ncc1Cl)N2` [E424, 14-Chloro-5-(oxan-4-yl)-4-(trifluoromethyl)-8-oxa-2,5,6,12,16,17-hexaazatricyclo[11.3.1.0^3,7]heptadeca-1(16),3,6,13(17),14-pentaene], the half-maximal inhibitory concentration (IC50) is at most 100 nM.

`Cc1c2c(nn1C1CN(C3CCOCC3)C1)OC[C@@H](F)[C@@H](C)Nc1nc(ncc1Cl)N2` [E388, (10S, 11R)-14-Chloro-10-fluoro-4,11-dimethyl-5-[1-(oxan-4-yl)azetidin-3-yl]-8-oxa-2,5,6,12,16,17-hexaazatricyclo [11.3.1.0^3,7]heptadeca-1(16),3,6,13(17),14-pentaene] showed an IC50 of at most 100 nM.

`Cc1c2c(nn1C1CCOCC1)OCCC(C)Nc1nc(ncc1Br)N2` (single isomer, unassigned) [E29, 14-bromo-4,11-dimethyl-5-(oxan-4-yl)-8-oxa-2,5,6,12,16,17-hexaaza tricyclo[11.3.1.0^3,7]heptadeca-1(16),3,6,13(17),14-pentaene] showed an IC50 of at most 10000 nM.

Turning to `Cc1c2c(nn1C1CCOCC1)OCC(F)C(C)Nc1nc(ncc1Cl)N2` (single isomer, unassigned) [E63, 14-Chloro-10-fluoro-4,11-dimethyl-5-(oxan-4-yl)-8-oxa-2,5,6,12, 16,17-hexaazatricyclo[11.3.1.0^3,7]heptadeca-1(16),3,6,13(17),14-pentaene], the IC50 was at most 10000 nM.

For `COCC1CCOc2nn(C3CCOCC3F)c(C)c2Nc2ncc(Cl)c(n2)N1` (single isomer, unassigned) [E355, 14-Chloro-5-(3-fluorooxan-4-yl)-11-(methoxymethyl)-4-methyl-8-oxa-2,5,6,12,16,17-hexaazatricyclo [11.3. 1.0^3,7]heptadeca-1(16),3,6,13(17),14-pentaene], the half-maximal inhibitory concentration (IC50) is at most 100 nM.

As to `Cc1c2c(nn1CC(C)(C)O)OCCC(C)Nc1nc(ncc1Cl)N2` (single isomer, unassigned) [E264, 1-{14-Chloro-4,11-dimethyl-8-oxa-2,5,6,12,16,17-hexaazatricyclo[11.3.1.0^3,7]heptadeca-1(17),3,6,13,15-pentaen-5-yl}-2-methylpropan-2-ol], the half-inhibitory concentration (IC50) is at most 10000 nM.

Take `Cc1c2c(nn1C1CCC(C)CC1)OCCC(C)Nc1nc(ncc1Cl)N2` (single isomer, unassigned) [E262, 14-Chloro-4,11-dimethyl-5-(4-methylcyclohexyl)-8-oxa-2,5,6,12,16,17-hexaazatricyclo[11.3.1.0^3,7] heptadeca-1(16),3,6,13(17),14-pentaene]: the concentration for half-maximal inhibition (IC50) is at most 10000 nM.

In turn, `C[C@@H]1CCOc2nn(C3CCN(C4COC4)CC3(F)F)c(Cl)c2Nc2ncc(Cl)c(n2)N1` (single isomer, unassigned) [E445] showed an IC50 of at most 100 nM.

In the case of `Clc1cnc2nc1NCCCOc1nn(C3CCCOC3)cc1N2` (stereo not drawn) [E9, 14-Chloro-5-(oxan-3-yl)-8-oxa-2,5,6,12,16,17-hexaazatricyclo[11.3.1.0^3,7]heptadeca-1(16),3,6,13(17),14-pentaene], the IC50 was at most 10000 nM.

`COC1CCCC(n2nc3c(c2C)Nc2ncc(Cl)c(n2)NCCCO3)C1` (single isomer, unassigned) [E181, 14-Chloro-5-(3-methoxycyclohexyl)-4-methyl-8-oxa-2,5,6,12,16,17-hexaazatricyclo[11.3.1.0^3,7]heptadeca-1(16),3,6,13(17),14-pentaene]: 100000 nM corresponded to half-maximal inhibition (IC50).

Take `Cc1c2c(nn1C1CCOCC1F)OCCCNc1nc(ncc1Cl)N2` (single isomer, unassigned) [E236, 14-Chloro-5-(3-fluorooxan-4-yl)-4-methyl-8-oxa-2,5,6,12,16,17-hexaazatricyclo[11.3.1.0^3,7]heptadeca-1(16),3,6,13 (17),14-pentaene]: the IC50 is at most 100 nM.

The compound `Cc1c2c(nn1C1CCOCC1)OCC[C@H](C)Nc1nc(ncc1Cl)N2` [E7, (11S)-14-Chloro-4,11-dimethyl-5-(oxan-4-yl)-8-oxa-2,5,6,12,16,17-hexaazatricyclo [11.3.1.0^3,7]heptadeca-1(16),3,6,13(17),14-pentaene] had a 50% inhibitory concentration (IC50) of at most 10000 nM.

In turn, `Cc1c2c(nn1C1CCC(N3C[C@H]4C[C@@H]3CO4)CC1)OCCC(C)Nc1nc(ncc1Cl)N2` (single isomer, unassigned) [E56] had a concentration for half-maximal inhibition (IC50) of at most 10000 nM.

As to `COCC1CCOc2nn(C3CCOCC3F)c(C)c2Nc2ncc(Cl)c(n2)N1` (single isomer, unassigned) [E354, 14-Chloro-5-(3-fluorooxan-4-yl)-11-(methoxymethyl)-4-methyl-8-oxa-2,5,6,12,16,17-hexaazatricyclo [11.3. 1.0^3,7]heptadeca-1(16),3,6,13(17),14-pentaene], the IC50 was at most 100 nM.

As to `Cc1c2c(nn1C1CCOCC1)OCCC(C1CC1)Nc1nc(ncc1Cl)N2` (single isomer, unassigned) [E292, 14-Chloro-11-cyclopropyl-4-methyl-5-(oxan-4-yl)-8-oxa-2,5,6,12,16,17-hexaazatricyclo[11.3.1.0^3,7]heptadeca-1(16),3,6,13(17),14-pentaene], the IC50 was at most 10000 nM.

The compound `Cc1c2c(nn1C1CCOCC1)OCC[C@@H](C)Nc1nc(ncc1F)N2` [E295, (11R)-14-Fluoro-4,11-dimethyl-5-(oxan-4-yl)-8-oxa-2,5,6,12,16,17-hexaazatricyclo[11.3.1.0^3,7]heptadeca-1(16),3,6,13(17),14-pentaene] gave a 50% inhibitory concentration (IC50) of at most 100 nM.

`Cc1c2c(nn1C1CCOC(C)C1)OCCCNc1nc(ncc1Cl)N2` (single isomer, unassigned) [E203, 14-Chloro-4-methyl-5-(2-methyloxan-4-yl)-8-oxa-2,5,6,12,16,17-hexaazatricyclo[11.3.1.0^3,7]heptadeca-1(16),3,6,13(17),14-pentaene] had a 50% inhibitory concentration (IC50) of at most 100 nM.

For the compound `COCC1CCOc2nn(C3CCOCC3F)c(C)c2Nc2ncc(Cl)c(n2)N1` (single isomer, unassigned) [E358, 14-Chloro-5-(3-fluorooxan-4-yl)-11-(methoxymethyl)-4-methyl-8-oxa-2,5,6,12,16,17-hexaazatricyclo [11.3. 1.0^3,7]heptadeca-1(16),3,6,13(17),14-pentaene], the half-inhibitory concentration (IC50) was at most 100 nM.

Compound `Cc1c2c(nn1CC(C)(C)O)OCCCNc1nc(ncc1Cl)N2` [E263, 1-{14-Chloro-4-methyl-8-oxa-2,5,6,12,16,17-hexaazatricyclo [11.3.1.0^3,7]heptadeca-1(16),3,6,13(17),14-pentaen-5-yl}-2-methylpropan-2-ol] showed a 50% inhibitory concentration (IC50) of at most 10000 nM.

Take `Cc1c2c(nn1C1CCCOC1)OCC(C)CNc1nc(ncc1Cl)N2` (single isomer, unassigned) [E308, 14-Chloro-4,10-dimethyl-5-(oxan-3-yl)-8-oxa-2,5,6,12,16,17-hexaazatricyclo[11.3.1.0^3,7]heptadeca-1(16),3,6, 13(17),14-pentaene]: the IC50 was at most 100 nM.

For the compound `Cc1c2c(nn1C(C)C1CCOCC1)OCCC(C)Nc1nc(ncc1Cl)N2` (single isomer, unassigned) [E185, 14-Chloro-4,11-dimethyl-5-[1-(oxan-4-yl)ethyl]-8-oxa-2,5,6,12,16,17-hexaazatricyclo[11.3.1.0^3,7]heptadeca-1(16),3,6,13(17),14-pentaene], the concentration for half-maximal inhibition (IC50) is at most 10000 nM.

Consider `Cc1c2c(nn1C1CCOCC1F)OCCC(C)Nc1nc(ncc1Cl)N2` (single isomer, unassigned) [E26, 14-chloro-5-(3-fluorooxan-4-yl)-4,11-dimethyl-8-oxa-2,5,6,12,16,17-hexaazatricyclo [11.3.1.0^3,7]heptadeca-1(17),3,6,13,15-pentaene], for which the IC50 was at most 10000 nM.

Regarding `Cc1c2c(nn1C1CCOC(C)C1)OCCC(C)Nc1nc(ncc1Cl)N2` (single isomer, unassigned) [E84, 14-chloro-4,11-dimethyl-5-(2-methyloxan-4-yl)-8-oxa-2,5,6,12, 16,17-hexaazatricyclo[11.3.1.0^3,7]heptadeca-1(16),3,6,13(17),14-pentaene], the IC50 is at most 100 nM.
